Laboratory results from patent publication US4472573A, “Nitrosourea derivative and process for preparing same” (Tanabe Seiyaku Co., Ltd., priority 1981, dated 1984).

How the values were obtained:
leukemic cells = conditions: Japanese Patent Publication (unexamined) No. 141815/1976; cited from earlier work
lymphoid leukemia L-1210 = conditions: U.S. Pat. No. 4,086,415; cited from earlier work
[1] = system: Ehrlich ascites carcinoma; assay: Preventive effect against the growth of Ehrlich ascites carcinoma (Method A); format: in vivo, ICR mice; conditions: for Toxicity / the number of mice died / the number of mice used / minimal effective dose / Inhibition ratio: once a day for 5 days; for Therapeutic index: MTD / MED; for minimal effective dose: Mus musculus, Ehrlich, ip, 120 h, minimum dose showing 100% inhibition, i.p., read-out: MED (Minimum Effective Dose)
Description: (§1) (A) Preventive Effect Against the Growth of Ehrlich Ascites Tumor
(§2) 10^6 tumor cells of Ehrlich ascites carcinoma were inoculated intraperitoneally into a group of five femal mice (ICR mice, body weight: 19-23 g). A test compound was dissolved in a physiological saline solution (In the case where CCNU was employed as the test compound, said compound was suspended in a physiological saline solution containing 0.1% NIKKOL HCO-60 (trademark; a surface active agent manufactured by Nikko Chemicals Co. Ltd.)) and administered intraperitoneally to the mice. The administration of the test compound was begun 24 hours after the inoculation of the tumor cells and performed once a day for 5 days. The volume of ascites in the treated mice were measured after 7 days of the experiment.
(§3) ^(a) T = the average volume of ascites in the treated mice
(§4) C = the average volume of ascites in the untreated mice (control group of
(§5) 100% inhibition for the growth of Ehrlich ascites tumor in mice without
(§6) 100% inhibition for the growth of said ascites tumor)
(§7) ^(e) Therapeutic index = MTD / MED
(§8) *the number of mice died / the number of mice used

[2] = as above; format: in vivo, ICR mice; conditions: mouse, in vivo, ip; maximum dose showing 100% inhibition without causing death; i.p., once a day for 5 days; read-out: MTD (Maximum Tolerated Dose)
Description: as §1, §2, §3, §4, §5, §6, §7, §8

Leukemia L-1210 = assay: Effect on life span of mice implanted with Leukemia L-1210 (Method B); format: in vivo, BDF1 mice; conditions: once a day for 5 days; for 60-day survivors: survived for 60 days / used
Description: (B) Effect on the Life Span of Mice Implanted with Leukemic Cells of L-1210
10^5 leukemic cells of L-1210 were inoculated intraperitoneally into a group of four male mice (BDF1 mice, body weight: 19-23 g). A test compound was dissolved in a physiological saline solution and administered intraperitoneally to the mice. The administration of the test compound was begun 24 hours after the inoculation of the leukemic cells and performed once a day for 5 days. The survival days of the treated mice were observed.
^(a) T = the mean survival days of the treated mice
C = the mean survival days of the untreated mice (control group of mice)
^(c) 60day survivors = the number of mice survived for 60 days / the […]

SMILES	Toxicity ([1]; 100 mg/kg/day i.p.)	the number of mice died / the number of mice used ([1]; 100 mg/kg/day i.p.)	Therapeutic index [1]	minimal effective dose [1]	MTD [2]	Inhibition ratio ([1]; 0.78 mg/kg/day i.p.)	ILS (Leukemia L-1210; 12.5 mg/kg/day i.p.)	60-day survivors (Leukemia L-1210; 12.5 mg/kg/day i.p.)	ILS (Leukemia L-1210; 25 mg/kg/day i.p.)	60-day survivors (Leukemia L-1210; 25 mg/kg/day i.p.)	ILS (Leukemia L-1210; 50 mg/kg/day i.p.)	60-day survivors (Leukemia L-1210; 50 mg/kg/day i.p.)	Inhibition ratio ([1]; 0.39 mg/kg/day i.p.)	Inhibition ratio ([1]; 3.12 mg/kg/day i.p.)	Inhibition ratio ([1]; 12.5 mg/kg/day i.p.)	Inhibition ratio ([1]; 50 mg/kg/day i.p.)	also measured
O=NN(CCCl)C(=O)N[C@@H]1O[C@H](CO)[C@@H](O[C@@H]2O[C@H](CO)[C@H](O)[C@H](O)[C@H]2O)[C@H](O)[C@H]1O [1-(2-chloroethyl)-1-nitroso-3-β-(D-lactosyl)urea]	–	–	–	–	–	–	–	–	–	–	–	–	–	–	–	–	anti-tumor activity against leukemic cells (leukemic cells): show anti-tumor activity against leukemic cells
O=NN(CCCl)C(=O)N[C@@H]1O[C@H](CO)[C@@H](O[C@H]2O[C@H](CO)[C@@H](O)[C@H](O)[C@H]2O)[C@H](O)[C@H]1O [1-(2-chloroethyl)-1-nitroso-3-β-(D-maltosyl)urea]	–	–	–	–	–	–	–	–	–	–	–	–	–	–	–	–	anti-tumor activity against leukemic cells (leukemic cells): show anti-tumor activity against leukemic cells
O=NN(CCCl)C(=O)N[C@@H]1O[C@H](CO)[C@@H](O)[C@H](O)[C@@H]1O [1-(2-chloroethyl)-1-nitroso-3-β-(D-mannopyranosyl)urea]	–	–	–	–	–	–	–	–	–	–	–	–	–	–	–	–	life span of mice implanted with L-1210 (lymphoid leukemia L-1210): increase the life span of mice
O=NN(CCCl)C(=O)NC1CCCCC1 [CCNU, 1-(2-chloroethyl)-1-nitroso-3-cyclohexylurea, reference compound]	Toxic	5/5	4	12.5 mg/kg/day	–	–	–	–	–	–	–	–	–	–	–	–	–
CCCCN(C(=O)N(CCCl)N=O)[C@H]1[C@@H](OC)O[C@H](CO)[C@@H](O)[C@@H]1O [Compound 1, 1-(2-chloroethyl)-1-nitroso-3-n-butyl-3-(methyl α-D-glucopyranosid-2-yl)urea]	–	–	64	1.56 mg/kg/day	100 mg/kg/day	34.1%	–	–	–	–	–	–	–	–	–	–	Inhibition ratio ([1]; 1.56 mg/kg/day i.p.): 100%; Inhibition ratio ([1]; 6.25 mg/kg/day i.p.): 100%; Inhibition ratio ([1]; 25 mg/kg/day i.p.): 100%; Inhibition ratio ([1]; 100 mg/kg/day i.p.): 100%; Toxicity ([1]; 200 mg/kg/day i.p.): Toxic
CCCN(C(=O)N(CCCl)N=O)[C@H]1[C@@H](OC)O[C@H](CO)[C@@H](O)[C@@H]1O [Compound 2, 1-(2-chloroethyl)-1-nitroso-3-n-propyl-3-(methyl α-D-glucopyranosid-2-yl)urea]	Toxic	2/5	64	0.78 mg/kg/day	50 mg/kg/day	100%	> 366.3%	2/4	> 650.0%	4/4	> 650.0%	4/4	15.2%	100%	100%	100%	ILS (Leukemia L-1210; 6.25 mg/kg/day i.p.): 78.8%; 60-day survivors (Leukemia L-1210; 6.25 mg/kg/day i.p.): 0/4
CO[C@H]1O[C@H](CO)[C@@H](O)[C@H](O)[C@H]1N(CC(C)C)C(=O)N(CCCl)N=O [Compound 3, 1-(2-chloroethyl)-1-nitroso-3-isobutyl-3-(methyl α-D-glucopyranosid-2-yl)urea]	Toxic	4/5	64	0.78 mg/kg/day	50 mg/kg/day	100%	114.9%	0/4	> 689.5%	4/4	> 689.5%	4/4	45.7%	100%	100%	100%	–
COCCN(C(=O)N(CCCl)N=O)[C@H]1[C@@H](OC)O[C@H](CO)[C@@H](O)[C@@H]1O [Compound 4, 1-(2-chloroethyl)-1-nitroso-3-(2-methoxyethyl)-3-(methyl α-D-glucopyranosid-2-yl)urea]	Toxic	3/5	128	0.39 mg/kg/day	50 mg/kg/day	100%	> 243.8%	1/4	> 650.0%	4/4	> 650.0%	4/4	100%	100%	100%	100%	ILS (Leukemia L-1210; 6.25 mg/kg/day i.p.): 93.8%; 60-day survivors (Leukemia L-1210; 6.25 mg/kg/day i.p.): 0/4; Inhibition ratio ([1]; 0.19 mg/kg/day i.p.): 69.6%
CO[C@H]1O[C@H](CO)[C@@H](O)[C@H](O)[C@H]1N(C)C(=O)N(CCCl)N=O [Compound 5, 1-(2-chloroethyl)-1-nitroso-3-methyl-3-(methyl α-D-glucopyranosid-2-yl)urea]	–	–	128	0.78 mg/kg/day	100 mg/kg/day	100%	–	–	–	–	–	–	9.8%	–	–	–	Inhibition ratio ([1]; 1.56 mg/kg/day i.p.): 100%; Inhibition ratio ([1]; 6.25 mg/kg/day i.p.): 100%; Inhibition ratio ([1]; 25 mg/kg/day i.p.): 100%; Inhibition ratio ([1]; 100 mg/kg/day i.p.): 100%; Toxicity ([1]; 200 mg/kg/day i.p.): Toxic; the number of mice died / the number of mice used ([1]; 200 mg/kg/day i.p.): 5/5
O=NN(CCCl)C(=O)N[C@@H]1O[C@H](CO)[C@@H](O)[C@H](O)[C@H]1O [GANU, 1-(2-chloroethyl)-1-nitroso-3-(β-D-glucopyranosyl)urea, reference compound]	–	–	32	0.39 mg/kg/day	12.5 mg/kg/day	–	–	–	–	–	–	–	–	–	100%	–	life span of mice implanted with L-1210 (lymphoid leukemia L-1210): increase the life span of mice; Toxicity ([1]; 25 mg/kg/day i.p.): Toxic; the number of mice died / the number of mice used ([1]; 25 mg/kg/day i.p.): 5/5
